In US11299447B2, “Method for isolating a carboxylic acid from an aqueous solution” (PURAC BIOCHEM BV, priority 2011, dated 2022):
Values belong to the molecule of their own block, whether it stands above or below them.

How the values were obtained:
Assay type in all cases: physicochemical
[1] = Solvent solubility in aqueous MgCl2 solution (gas chromatography of aqueous phase)
Protocol: Hereafter, the stirring was stopped, the phases were allowed to separate and a sample was taken from the aqueous bottom phase. The concentration of solvent in this sample was determined by gas chromatography.

[2] = Extraction of different types of polycarboxylic acids; details: for DBE: distribution ratio in back extraction; for DFE: distribution ratio in forward extraction, feed 15 wt. % MgCl2
Excerpt: These tables also give the concentration ratio, which is the ratio between the acid concentration in the product and the acid concentration in the feed.

[3] = Stability of extraction solvent in contact with 2-hydroxy butyric acid feed solution (gas chromatography); details: 60° C.
Protocol: This experiment was conducted to compare the stability of two solvents, MIBK and Isoamyl alcohol in contact with the 2-hydroxy butyric acid feed solution prepared by adding 340 g of crystalline hydroxy butyric acid to 720 g water and mixing to complete dissolution. The thus prepared feed solution comprised 32 wt % of hydroxy butyric acid.
For each solvent a closed glass reactor was filled with 20 g of solvent and 20 g of the hydroxy butyric acid feed solution, put in an oven to maintain a temperature of 60° C. and shaken continuously. After 3 hours, 24 hours (1 day) and 168 hours (1 week) the shaking was stopped for 1 hour to allow the phases to settle, a sample was taken from the solvent top layer, and the composition of the solvent top layer analyzed by gas chromatography.

[4] = Lactic acid distribution ratio MIBK/aqueous MgCl2 solution; details: initial lactic acid 20 wt %
Excerpt: Forward extraction and back extraction as used in the method of the invention are based on the difference in solubility of the carboxylic acid in water and the organic solvent at different temperatures. The solubility of a compound in one solvent relative to another solvent can be expressed in terms of the distribution ratio (DR). This ratio gives an indication how a compound will be distributed over the aqueous phase (e.g. the aqueous mixture) and the organic phase (e.g. the organic liquid) in a two-phase system at equilibrium. The distribution ratio may be defined as the ratio of the carboxylic acid concentration dissolved in the organic phase ([carboxylic acid]organic) over the concentration of the carboxylic acid dissolved in water ([carboxylic acid]water), provided that the two phases are in equilibrium with each other: DR=[carboxylic acid]organic/[carboxylic acid]water (1)
The resulting two phase system was stirred at 20° C. or 60° C. for 30 minutes with sufficient speed to ensure that both phases are well dispersed. Hereafter, the stirring is stopped, the phases were allowed to separate and samples were taken from both phases. The concentration of lactic acid (wt %) in these samples was determined by potentiometric titration. Hereafter the distribution ratio was calculated as the ratio of the lactic acid concentration (wt %) in the MIBK organic solvent phase divided by the lactic acid concentration (wt %) in the aqueous phase.

[5] = Table 2.2, MgCl2 0 wt %, 20° C.
[6] = Table 2.2, MgCl2 15 wt %, 20° C.
[7] = Table 2.2, MgCl2 30 wt %, 20° C.

SMILES: CC(C)OC(C)C [Diisopropyl ether, reference compound]
Solvent solubility [1, 5]: 1.0 wt %
Solvent solubility [1, 6]: 0.4 wt %
Solvent solubility [1, 7]: 0.7 wt %

SMILES: CC(C)CCO [Isoamyl alcohol, reference compound]
isoamylhydroxybutyrate formed in solvent layer ([3]; 20 g solvent + 20 g 32 wt % hydroxy butyric acid feed, after 3 hours): 14.3 area %
isoamylhydroxybutyrate concentration in solvent layer ([3]; after 24 hours): 21.5 area %
isoamylhydroxybutyrate concentration in solvent layer ([3]; after 168 hours): 21.5 area %
Solvent solubility [1, 5]: 2.8 wt %
Solvent solubility [1, 6]: 1.5 wt %
Solvent solubility [1, 7]: 0.6 wt %

SMILES: C=C(CC(=O)O)C(=O)O [Itaconic acid, itaconic acid]
DFE/DBE [2]: 2.64
DBE [2]: 1.07
DFE [2]: 2.83

Now from value to molecule, other results behind:

DFE/DBE [2]: 7.29
DBE [2]: 0.24
DFE [2]: 1.75
SMILES: O=C(O)/C=C/C(=O)O [Fumaric acid, fumaric acid]

MIBK solubility ([1]; MgCl2 0 wt %, 20° C.): 1.8 wt %
MIBK solubility ([1]; MgCl2 0 wt %, 60° C.): 1.4 wt %
MIBK solubility ([1]; MgCl2 15 wt %, 20° C.): 0.48 wt %
MIBK solubility ([1]; MgCl2 15 wt %, 60° C.): 0.20 wt %
MIBK solubility ([1]; MgCl2 30 wt %, 20° C.): 0.17 wt %
MIBK solubility ([1]; MgCl2 30 wt %, 60° C.): 0.11 wt %
Solvent solubility [1, 5]: 1.8 wt %
Solvent solubility [1, 6]: 0.5 wt %
Solvent solubility [1, 7]: 0.1 wt %
SMILES: CC(=O)CC(C)C [MIBK, methyl-isobutylketone]
changes in the purity of the solvent ([3]; 20 g solvent + 20 g 32 wt % hydroxy butyric acid feed, after 168 hours): no changes in the purity of the MIBK could be detected

Lactic acid distribution ratio ([4]; MgCl2 0 wt %, 20° C.): 0.16 wt %/wt %
Lactic acid distribution ratio ([4]; MgCl2 0 wt %, 60° C.): 0.19 wt %/wt %
Lactic acid distribution ratio ([4]; MgCl2 10.5 wt %, 20° C.): 0.33 wt %/wt %
Lactic acid distribution ratio ([4]; MgCl2 10.5 wt %, 60° C.): 0.37 wt %/wt %
Lactic acid distribution ratio ([4]; MgCl2 16.0 wt %, 20° C.): 0.49 wt %/wt %
Lactic acid distribution ratio ([4]; MgCl2 16.0 wt %, 60° C.): 0.56 wt %/wt %
SMILES: CC(O)C(=O)O (stereo not shown) [lactic acid]
